What follows are compounds tested on Endogenous Huntingtin Protein (assay: Endogenous Huntingtin Protein Assay (MSD plates, MW1 or MAB2166 capture antibody)). Details: Table 1.
Type: cell-based
Method in brief: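 Sandwich MSD immunoassay: plates were coated overnight at 4° C with MW1 (expanded polyQ) or MAB2166 capture antibody at 1 μg/mL, then blocked with 5% BSA. Samples were bound overnight at 4° C, followed by rabbit mAb #5656S and SULFO-TAG anti-rabbit detection, each at 0.25 μg/mL for 1 h at room temperature. Signal was read by electrochemiluminescence.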

Structure (SMILES)	IC50
CN(c1nc2sc(-c3cnc(-c4cn[nH]c4)nc3)nc2s1)C1CC(C)(C)NC(C)(C)C1 [Compound 137, N-methyl-5-[2-(1H-pyrazol-4-yl)pyrimidin-5-yl]-N-(2,2,6,6-tetramethylpiperidin-4-yl)[1,3]thiazolo[5,4-d][1,3]thiazol-2-amine]	≤ 100 nM
CN1CCC2(CC1)CN(c1nc3sc(-c4ncc(-c5cn[nH]c5)c5cc[nH]c45)nc3s1)C2 [Compound 138, 7-[5-(7-methyl-2,7-diazaspiro[3.5]nonan-2-yl)[1,3]thiazolo[5,4-d][1,3]thiazol-2-yl]-4-(1H-pyrazol-4-yl)-1H-pyrrolo[2,3-c]pyridine]	≤ 100 nM
CN(c1nc2sc(-c3ncc(-c4cn[nH]c4)c4cc[nH]c34)nc2s1)C1CCNCC1 [Compound 139, N-methyl-N-(piperidin-4-yl)-5-[4-(1H-pyrazol-4-yl)-1H-pyrrolo[2,3-c]pyridin-7-yl][1,3]thiazolo[5,4-d][1,3]thiazol-2-amine]	≤ 100 nM
CN(c1nc2sc(-n3cnc(-c4cn[nH]c4)cc3=O)nc2s1)C1CC(C)(C)NC(C)(C)C1 [Compound 140, 3-{5-[methyl(2,2,6,6-tetramethylpiperidin-4-yl)amino][1,3]thiazolo[5,4-d][1,3]thiazol-2-yl}-6-(1H-pyrazol-4-yl)pyrimidin-4(3H)-one]	≤ 100 nM
CN(c1nc2sc(-c3ccc(-c4cn[nH]c4)cc3)nc2s1)[C@@H]1C[C@H]2CC[C@@H](C1)N2 [Compound 141, N-[(1R,3s,5S)-8-azabicyclo[3.2.1]octan-3-yl]-N-methyl-5-[4-(1H-pyrazol-4-yl)phenyl][1,3]thiazolo[5,4-d][1,3]thiazol-2-amine]	≤ 100 nM
CN(c1nc2sc(-c3cnc(-c4cn[nH]c4)cn3)nc2s1)[C@H]1C[C@]2(C)CC[C@](C)(C1)N2 [Compound 142, N-[(1R,3s,5S)-1,5-dimethyl-8-azabicyclo[3.2.1]octan-3-yl]-N-methyl-5-[5-(1H-pyrazol-4-yl)pyrazin-2-yl][1,3]thiazolo[5,4-d][1,3]thiazol-2-amine]	≤ 100 nM
CC1(C)CC(Oc2nc3sc(-c4cnc(-c5cn[nH]c5)cn4)nc3s2)CC(C)(C)N1 [Compound 143, 2-[5-(1H-pyrazol-4-yl)pyrazin-2-yl]-5-[(2,2,6,6-tetramethylpiperidin-4-yl)oxy][1,3]thiazolo[5,4-d][1,3]thiazole]	≤ 100 nM
CN(c1nc2sc(-n3cnc(-c4cn[nH]c4)cc3=O)nc2s1)[C@H]1C[C@]2(C)CC[C@](C)(C1)N2 [Compound 144, 3-(5-{[(1R,3s,5S)-1,5-dimethyl-8-azabicyclo[3.2.1]octan-3-yl](methyl)amino}[1,3]thiazolo[5,4-d][1,3]thiazol-2-yl)-6-(1H-pyrazol-4-yl)pyrimidin-4(3H)-one]	≤ 100 nM
CN(c1nc2sc(-c3ncc(-c4cn[nH]c4)cc3O)nc2s1)C1CCN2CCCC2C1 (stereo not drawn) [Compound 145, 2-{5-[methyl(octahydroindolizin-7-yl)amino][1,3]thiazolo[5,4-d][1,3]thiazol-2-yl}-5-(1H-pyrazol-4-yl)pyridin-3-ol]	≤ 100 nM
CN(c1nc2sc(-n3ccc(-c4cn[nH]c4)cc3=O)nc2s1)[C@H]1C[C@]2(C)CC[C@](C)(C1)N2 [Compound 146, 1-(5-{[(1R,3s,5S)-1,5-dimethyl-8-azabicyclo[3.2.1]octan-3-yl](methyl)amino}[1,3]thiazolo[5,4-d][1,3]thiazol-2-yl)-4-(1H-pyrazol-4-yl)pyridin-2(1H)-one]	≤ 100 nM
CC(C)(C)NC1CCN(c2nc3sc(-c4ccc(-c5cn[nH]c5)cc4O)nc3s2)C1 (stereo not drawn) [Compound 147, 2-{5-[3-(tert-butylamino)pyrrolidin-1-yl][1,3]thiazolo[5,4-d][1,3]thiazol-2-yl}-5-(1H-pyrazol-4-yl)phenol]	1000 to 3000 nM
CN(c1nc2sc(-n3ccc(-n4cc(F)cn4)cc3=O)nc2s1)[C@H]1C[C@]2(C)CC[C@](C)(C1)N2 [Compound 148, 1-(5-{[(1R,3s,5S)-1,5-dimethyl-8-azabicyclo[3.2.1]octan-3-yl](methyl)amino}[1,3]thiazolo[5,4-d][1,3]thiazol-2-yl)-4-(4-fluoro-1H-pyrazol-1-yl)pyridin-2(1H)-one]	≤ 100 nM
CN(c1nc2sc(-n3ccc(-n4cc(F)cn4)cc3=O)nc2s1)[C@@H]1C[C@H]2CC[C@@H](C1)N2 [Compound 149, 1-(5-{[(1R,3s,5S)-8-azabicyclo[3.2.1]octan-3-yl](methyl)amino}[1,3]thiazolo[5,4-d][1,3]thiazol-2-yl)-4-(4-fluoro-1H-pyrazol-1-yl)pyridin-2(1H)-one]	≤ 100 nM
CC(C)(C)NC1CCN(c2nc3sc(-c4ncc(-c5cn[nH]c5)cn4)nc3s2)C1 (stereo not drawn) [Compound 150, N-tert-butyl-1-{5-[5-(1H-pyrazol-4-yl)pyrimidin-2-yl][1,3]thiazolo[5,4-d][1,3]thiazol-2-yl}pyrrolidin-3-amine]	1000 to 3000 nM
CC(C)(C)NC1CCN(c2nc3sc(-n4ccc(-c5cn[nH]c5)cc4=O)nc3s2)C1 (stereo not drawn) [Compound 151, 1-{5-[3-(tert-butylamino)pyrrolidin-1-yl][1,3]thiazolo[5,4-d][1,3]thiazol-2-yl}-4-(1H-pyrazol-4-yl)pyridin-2(1H)-one]	100 to 500 nM
CC1CC(N(C)c2nc3sc(-c4ncc(-c5cn[nH]c5)c5cc[nH]c45)nc3s2)CCN1C (stereo not drawn) [Compound 152, N-(1,2-dimethylpiperidin-4-yl)-N-methyl-5-[4-(1H-pyrazol-4-yl)-1H-pyrrolo[2,3-c]pyridin-7-yl][1,3]thiazolo[5,4-d][1,3]thiazol-2-amine]	≤ 100 nM
CN(c1nc2sc(-n3cnc(-c4cn[nH]c4)cc3=O)nc2s1)[C@@H]1C[C@H]2CC[C@@H](C1)N2C [Compound 153, 3-(5-{methyl[(1R,3s,5S)-8-methyl-8-azabicyclo[3.2.1]octan-3-yl]amino}[1,3]thiazolo[5,4-d][1,3]thiazol-2-yl)-6-(1H-pyrazol-4-yl)pyrimidin-4(3H)-one]	≤ 100 nM
CN(c1nc2sc(-c3ncc(-c4cn[nH]c4)c4cc[nH]c34)nc2s1)[C@H]1C[C@]2(C)CC[C@](C)(C1)N2 [Compound 154, N-[(1R,3s,5S)-1,5-dimethyl-8-azabicyclo[3.2.1]octan-3-yl]-N-methyl-5-[4-(1H-pyrazol-4-yl)-1H-pyrrolo[2,3-c]pyridin-7-yl][1,3]thiazolo[5,4-d][1,3]thiazol-2-amine]	≤ 100 nM
CN(c1nc2sc(-n3ccc(-c4cn[nH]c4)cc3=O)nc2s1)[C@@H]1CCCNC1 [Compound 155, 1-(5-{methyl[(3R)-piperidin-3-yl]amino}[1,3]thiazolo[5,4-d][1,3]thiazol-2-yl)-4-(1H-pyrazol-4-yl)pyridin-2(1H)-one]	100 to 500 nM
CC1(C)CC(Oc2nc3sc(-n4ccc(-c5cn[nH]c5)cc4=O)nc3s2)CC(C)(C)N1 [Compound 156, 4-(1H-pyrazol-4-yl)-1-{5-[(2,2,6,6-tetramethylpiperidin-4-yl)oxy][1,3]thiazolo[5,4-d][1,3]thiazol-2-yl}pyridin-2(1H)-one]	≤ 100 nM
CC1CC(N(C)c2nc3sc(-n4ccc5ccc(O)nc54)nc3s2)CCN1C (stereo not drawn) [Compound 157, 1-{5-[(1,2-dimethylpiperidin-4-yl)(methyl)amino][1,3]thiazolo[5,4-d][1,3]thiazol-2-yl]-1H-pyrrolo[2,3-b]pyridin-6-ol]	100 to 500 nM

— patent US11685746B2, “Heteroaryl compounds for treating Huntington's disease” (PTC THERAPEUTICS, INC., priority 2018, dated 2023)
